We go through 14 compounds from paper PMC9729598 (Bioorganic Chemistry, 2022).

One data set relates to pSARS-CoV-2. It is filed as cell-based, SARS-CoV-2.
Another data set concerns the target SARS-CoV-2 3CL protease (Severe acute respiratory syndrome coronavirus 2, UniProt P0DTD1). The data set is described as follows: biochemical. Particulars: for inhibition at 100 µM: read-out: inhibition rate against 3CL (%).
The next data set relates to SARS 3CL protease. Particulars: read-out: IC50 on SARS 3CL protease activity; cited from earlier work.

“And” between values parts separate entries of the source, which are not always exact repeats. Equal entries are not always repeated. Where only a bound is given, the exact number is not on record here.

With “2′-Oxopethyl-3β-O-[2, 4-di-O-(α-l-rhamnopyranosyl)-β-d-glucopyranosyl]-lup-20 (29)-ene-28-oic acid [BA-13]”, the CC50 in the data set with 293 T-ACE2 cells was 36.2 ± 0.75 µM. Further, in the data set with pSARS-CoV-2, it took 8.61 ± 0.47 µM to reach a half-maximal effect (EC50) and the SI is 4.21.

For `C=C(C)[C@@H]1CC[C@]2(C(=O)O)CC[C@]3(C)[C@H](CC[C@@H]4[C@@]5(C)CC[C@H](O)C(C)(C)[C@@H]5CC[C@]43C)[C@@H]12` [BA, Betulinic acid], on SARS-CoV-2 3CL protease, the “inhibition rate against 3CL (%)” value was 51.4% and the inhibition at 100 µM was 72.2%. The IC50 with SARS 3CL protease was 10 µM.

As to `C=C(C)[C@@H]1CC[C@]2(C(=O)OCC)CC[C@]3(C)[C@H](CC[C@@H]4[C@@]5(C)CC[C@H](O[C@@H]6O[C@H](CO)[C@@H](O[C@@H]7O[C@@H](C)[C@H](O)[C@@H](O)[C@H]7O)[C@H](O)[C@H]6O[C@@H]6O[C@@H](C)[C@H](O)[C@@H](O)[C@H]6O)C(C)(C)[C@@H]5CC[C@]43C)[C@@H]12` [BA-3, Ethyl-3β-O-[2,4-di-O-(α-l-rhamnopyranosyl)-β-d-glucopyranosyl]-lup-20 (29)-ene-28-oic acid], the 50% cytotoxic concentration (CC50) in the data set on 293 T-ACE2 cells came out at 36.1 ± 1.05 µM. In the data set with pSARS-CoV-2, this compound gave an EC50 of 3.7 ± 0.72 µM and an SI of 9.76.

Take `C=C(C)[C@@H]1CC[C@]2(C(=O)OCCCC)CC[C@]3(C)[C@H](CC[C@@H]4[C@@]5(C)CC[C@H](O[C@@H]6O[C@H](CO)[C@@H](O[C@@H]7O[C@@H](C)[C@H](O)[C@@H](O)[C@H]7O)[C@H](O)[C@H]6O[C@@H]6O[C@@H](C)[C@H](O)[C@@H](O)[C@H]6O)C(C)(C)[C@@H]5CC[C@]43C)[C@@H]12` [BA-5, n-Butyl-3β-O-[2,4-di-O-(α-l-rhamnopyranosyl)-β-d-glucopyranosyl]-lup-20 (29)-ene-28-oic acid]: the CC50 with 293 T-ACE2 cells turned out to be 76.5 ± 1.23 µM. Also, in the data set on pSARS-CoV-2, the midpoint of the response, the EC50, lay at 6.42 ± 0.2 µM and the SI is reported as 11.91.

Consider `C=C(C)[C@@H]1CC[C@]2(C(=O)OCCCCC)CC[C@]3(C)[C@H](CC[C@@H]4[C@@]5(C)CC[C@H](O[C@@H]6O[C@H](CO)[C@@H](O[C@@H]7O[C@@H](C)[C@H](O)[C@@H](O)[C@H]7O)[C@H](O)[C@H]6O[C@@H]6O[C@@H](C)[C@H](O)[C@@H](O)[C@H]6O)C(C)(C)[C@@H]5CC[C@]43C)[C@@H]12` [BA-6, n-Pentyl-3β-O-[2,4-di-O-(α-l-rhamnopyranosyl)-β-d-glucopyranosyl]-lup-20 (29)-ene-28-oic acid], for which, in the data set with 293 T-ACE2 cells, the half-maximal cytotoxic concentration (CC50) was determined as 24.4 ± 0.33 µM and the fold increased toxic stood at 1.7 fold. In the data set on pSARS-CoV-2, this compound yielded an EC50 of 5.37 ± 0.37 µM and an SI of 4.54.

In the data set with 293 T-ACE2 cells, `C=C(C)[C@@H]1CC[C@]2(C(=O)OCCCCCC)CC[C@]3(C)[C@H](CC[C@@H]4[C@@]5(C)CC[C@H](O[C@@H]6O[C@H](CO)[C@@H](O[C@@H]7O[C@@H](C)[C@H](O)[C@@H](O)[C@H]7O)[C@H](O)[C@H]6O[C@@H]6O[C@@H](C)[C@H](O)[C@@H](O)[C@H]6O)C(C)(C)[C@@H]5CC[C@]43C)[C@@H]12` [BA-7, n-Hexyl-3β-O-[2,4-di-O-(α-l-rhamnopyranosyl)-β-d-glucopyranosyl]-lup-20 (29)-ene-28-oic acid] registered a CC50 of 16.4 ± 0.19 µM and a fold increased toxic of 2.5 fold. Besides, in the data set on pSARS-CoV-2, the EC50 was determined as 5.54 ± 0.81 µM and the SI was 2.96.

Compound `C=C(C)[C@@H]1CC[C@]2(C(=O)OC(C)C)CC[C@]3(C)[C@H](CC[C@@H]4[C@@]5(C)CC[C@H](O[C@@H]6O[C@H](CO)[C@@H](O[C@@H]7O[C@@H](C)[C@H](O)[C@@H](O)[C@H]7O)[C@H](O)[C@H]6O[C@@H]6O[C@@H](C)[C@H](O)[C@@H](O)[C@H]6O)C(C)(C)[C@@H]5CC[C@]43C)[C@@H]12` [BA-8, Isopropyl-3β-O-[2,4-di-O-(α-l-rhamnopyranosyl)-β-d-glucopyranosyl]-lup-20 (29)-ene-28-oic acid] came in with a CC50 in the data set on 293 T-ACE2 cells of 47.2 ± 0.63 µM. In the data set on pSARS-CoV-2, this compound yielded an EC50 of 6.05 ± 0.38 µM and an SI of 7.81.

As to `C=C(C)C1CCC2(C(=O)OC3CCCCC3)CCC3(C)C(CCC4C5(C)CCC(OC6OC(CO)C(OC7OC(C)C(O)C(O)C7O)C(O)C6OC6OC(C)C(O)C(O)C6O)C(C)(C)C5CCC43C)C12` (stereo not drawn) [BA-9, Cyclohexyl-3β-O-[2,4-di-O-(α-l-rhamnopyranosyl)-β-d-glucopyranosyl]-lup-20 (29)-ene-28-oic acid], in the data set on pSARS-CoV-2, the EC50 was more than 20 µM and the “activity against pSARS-CoV-2” value is on record as “entirely lost”.

In the data set on 293 T-ACE2 cells, `C=C(C)[C@@H]1CC[C@]2(C(=O)OCCCl)CC[C@]3(C)[C@H](CC[C@@H]4[C@@]5(C)CC[C@H](O[C@@H]6O[C@H](CO)[C@@H](O[C@@H]7O[C@@H](C)[C@H](O)[C@@H](O)[C@H]7O)[C@H](O)[C@H]6O[C@@H]6O[C@@H](C)[C@H](O)[C@@H](O)[C@H]6O)C(C)(C)[C@@H]5CC[C@]43C)[C@@H]12` [BA-10, 2′-Chloroethyl-3β-O-[2,4-di-O-(α-l-rhamnopyranosyl)-β-d-glucopyranosyl]-lup-20 (29)-ene-28-oic acid] registered a cytotoxic concentration (CC50) of 51.8 ± 1.35 µM. In addition, in the data set on pSARS-CoV-2, the EC50 amounted to 7.67 ± 0.31 µM, the SI amounted to 6.75 and the fold decreased potency amounted to 2.4 fold.

Compound `C=C(C)[C@@H]1CC[C@]2(C(=O)OCCBr)CC[C@]3(C)[C@H](CC[C@@H]4[C@@]5(C)CC[C@H](O[C@@H]6O[C@H](CO)[C@@H](O[C@@H]7O[C@@H](C)[C@H](O)[C@@H](O)[C@H]7O)[C@H](O)[C@H]6O[C@@H]6O[C@@H](C)[C@H](O)[C@@H](O)[C@H]6O)C(C)(C)[C@@H]5CC[C@]43C)[C@@H]12` [BA-11, 2′-Bromoethyl 3β-O-[2,4-di-O-(α-l-rhamnopyranosyl)-β-d-glucopyranosyl]-lup-20 (29)-ene-28-oic acid] showed a CC50 in the data set on 293 T-ACE2 cells of 46.12 ± 0.31 µM. In the data set on pSARS-CoV-2, this compound displayed an EC50 of 9.03 ± 0.56 µM and an SI of 5.11.

On to `C=C(C)C1CCC2(C(=O)OCCO)CCC3(C)C(CCC4C5(C)CCC(OC6OC(CO)C(OC7OC(C)C(O)C(O)C7O)C(O)C6OC6OC(C)C(O)C(O)C6O)C(C)(C)C5CCC43C)C12` (stereo not drawn) [BA-12, 2′-Hydroxylethyl-3β-O-[2,4-di-O-(α-l-rhamnopyranosyl)-β-d-glucopyranosyl]-lup-20 (29)-ene-28-oic acid], for which, in the data set on pSARS-CoV-2, the EC50 is more than 20 µM and the “activity against pSARS-CoV-2” value is on record as “total loss of potency”.

Consider `C=CCOC(=O)[C@]12CC[C@@H](C(=C)C)[C@@H]1[C@H]1CC[C@@H]3[C@@]4(C)CC[C@H](O[C@@H]5O[C@H](CO)[C@@H](O[C@@H]6O[C@@H](C)[C@H](O)[C@@H](O)[C@H]6O)[C@H](O)[C@H]5O[C@@H]5O[C@@H](C)[C@H](O)[C@@H](O)[C@H]5O)C(C)(C)[C@@H]4CC[C@@]3(C)[C@]1(C)CC2` [BA-14, Allyl-3β-O-[2,4-di-O-(α-l-rhamnopyranosyl)-β-d-glucopyranosyl]-lup-20 (29)-ene-28-oic acid], for which the CC50 in the data set on 293 T-ACE2 cells came out at 84.62 ± 0.76 µM. In the data set with pSARS-CoV-2, this compound came in with an EC50 of 8.23 ± 0.55 µM, an SI of 10.28 and a fold decreased potency of 2.6 fold.

For the compound `C=C(C)[C@@H]1CC[C@]2(C(=O)OCC3CC3)CC[C@]3(C)[C@H](CC[C@@H]4[C@@]5(C)CC[C@H](O[C@@H]6O[C@H](CO)[C@@H](O[C@@H]7O[C@@H](C)[C@H](O)[C@@H](O)[C@H]7O)[C@H](O)[C@H]6O[C@@H]6O[C@@H](C)[C@H](O)[C@@H](O)[C@H]6O)C(C)(C)[C@@H]5CC[C@]43C)[C@@H]12` [BA-15, Cyclopropylmethyl-3β-O-[2,4-di-O-(α-l-rhamnopyranosyl)-β-d-glucopyranosyl]-lup-20 (29)-ene-28-oic acid], the CC50 with 293 T-ACE2 cells amounted to 75.5 ± 1.63 µM. In the data set on pSARS-CoV-2, this compound yielded a half-maximal effective concentration (EC50) of 15.9 ± 0.82 µM, an SI of 4.75 and a fold decreased potency of 4.9 fold.

Consider `O=c1c2ccccc2[se]n1-c1ccccc1` [Ebselen], for which, on SARS-CoV-2 3CL protease, the “inhibition rate against 3CL (%)” value is 97.6% and 96.2%; the inhibition at 100 µM stood at 98.5%.

The CC50 is the concentration that lowers cell viability or growth by half. Usually EC50 stands for the concentration at which the effect is half-maximal. The low end stands for greater potency, the high end for weaker potency. The inhibition is the percentage by which the read-out fell short of the control. The term IC50 denotes the concentration that gives 50% inhibition.
